Test results as given in patent publication US20090275586A1, “HETEROCYCLIC INHIBITORS OF PDE4” (KALYPSYS, INC., priority 2006, published 2009).

Experiments:
PDE4B = target: T1, PDE4B (Homo sapiens, UniProt Q07343); assay: PDE4 IMAP Assay; format: biochemical; conditions: 2 h; Activity at 10 μM; catalytic domain of PDE4B; read-out: PDE IMAP Assay
T1 construct: hexa-histidine (His6) (N); made in house
Description: Compounds may be screened for functional potency in in vitro biochemical assays for their ability to inhibit the activity of phosphodiesterase (PDE) enzymes. A commercial PDE assay, Molecular Device's PDE IMAP assay, was modified and utilized to measure the inhibitory activity of compounds on PDE isoforms. The IMAP technology is based on the high affinity binding of phosphate by immobilized metal (MIII) coordination complexes on nanoparticles. This IMAP “binding reagent” complexes with phosphate groups on the nucleotide monophosphates generated in the reaction. Such binding causes a change in the rate of the molecular motion of the nucleotide, and results in an increase in the fluorescence polarization value observed for the fluorescent label attached to the substrate. PDE inhibitors prevent the generation of nucleotide monophosphates and the subsequent increase in polarization value observed for the fluorescent label attached to the substrate. The catalytic domain of PDE4B was fused to an amino-terminus hex-histadine affinity tag and purified. PDE4B enzyme was incubated with compounds for 10 minutes. Fluorescently labeled cyclic AMP substrates were then added to the PDE enzyme mix and incubated for 2 hours at room temperature. IMAP binding reagent was then added to the enzyme mix, incubated for 10-30 minutes and fluorescent polarization of the fluorescently labeled substrate was read either with the Perkin Elmer Viewlux or Molecular Devices Acquest or Analyst. Roflumilast and Rolipram are the positive controls used in the assay.

PDE4 = PDE4 Cellular CNG Assay; format: cell-based; conditions: Activity at 10 μM; HEK293 cells stably expressing the CNG channel
Description: Compounds may be screened for functional potency in in vitro cellular assays for their ability to inhibit the activity of phosphodiesterase (PDE) enzymes. A commercial membrane potential assay, Molecular Device's membrane potential assay kit, was modified and utilized to measure the inhibitory activity of compounds on PDE isoforms in living cells. The cellular assay utilizes genetically engineered cyclic nucleotide-gated (CNG) channels as cyclic-AMP (cAMP) sensors. On binding cAMP these ion channels open, allowing the flow of cations across the plasma membrane. CNG channel activity can be monitored by measuring Ca^2+ influx in cell populations. The influx of Ca causes a change in membrane potential that is measured by voltage sensitive dyes. PDE inhibitors prevent the degradation of cAMP that is generated by adenylyl cyclases that are activated upon stimulation of G protein-coupled receptors (GPCR) linked to the cAMP pathway. In brief, Molecular Device's membrane potential dye was added to HEK293 cells stably expressing the CNG channel and incubated for 2 hours at room temperature. Test compounds were then added to the cells and incubated for 15 minutes. A GPCR agonist was then added to the cells to stimulate the cAMP pathway and incubated for 45 minutes. Fluorescent measurements were then conducted with either the Molecular Devices Acquest or Analyst. PDE inhibitors will inhibit the degradation of cAMP and cause an increase in fluorescent signal. Roflumilast and Rolipram are the positive controls used in the assay.

T1 sequence (Q07343 330-659 limits assumed, species assumed): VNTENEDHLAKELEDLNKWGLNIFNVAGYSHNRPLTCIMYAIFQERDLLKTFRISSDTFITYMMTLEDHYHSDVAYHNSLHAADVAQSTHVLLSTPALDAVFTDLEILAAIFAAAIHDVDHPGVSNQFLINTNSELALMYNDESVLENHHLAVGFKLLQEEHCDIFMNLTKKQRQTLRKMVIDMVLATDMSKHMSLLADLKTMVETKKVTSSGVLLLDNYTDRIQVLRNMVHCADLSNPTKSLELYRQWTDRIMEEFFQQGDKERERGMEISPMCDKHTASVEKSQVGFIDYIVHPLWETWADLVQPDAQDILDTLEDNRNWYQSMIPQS

Compound | inhibition at 10 µM (PDE4B) [%] | Cellular CNG Assay (PDE4)
NC(=O)CSc1nc2sc3c(c2c(=O)n1C1CCCC1)CCCC3 [Example 1, 2-(3-Cyclopentyl-4-oxo-3,4,5,6,7,8-hexahydro-benzo[4]thieno[2,3-d]pyrimidin-2-ylsulfanyl)-acetamide] | ≥ 50 | + (+indicates Activity ≧ 50% at 10 μM)
CCNc1nc(NCC)n2c(SCc3nc4ccccc4c(=O)[nH]3)nnc2n1 [Example 2, 2-((5,7-Bis(ethylamino)-[1,2,4]triazolo[4,3-a][1,3,5]-triazin-3-ylthio)methyl)quinazolin-4(3H)-one] | ≥ 50 | + (+indicates Activity ≧ 50% at 10 μM)
COc1ccc(CN(C(=O)c2cccc3ccccc23)C2CCCC2)cc1OC(C)C [Example 4, N-cyclopentyl-N-(3-isopropoxy-4-methoxybenzyl)-1-naphthamide] | ≥ 50 | + (+indicates Activity ≧ 50% at 10 μM)
Cc1ccc(S(=O)(=O)c2nnn3c2nc(NC(C)C)c2sccc23)cc1 [Example 7, N-isopropyl-3-tosylthieno[2,3-e][1,2,3]triazolo[1,5-a]pyrimidin-5-amine] | ≥ 50 | − (−indicates Activity < 50% at 10 μM)
CC(C)c1nc2sc3c(NCCCO)ncnc3c2c2c1COC(C)(C)C2 [Example 8, 3-(5-Isopropyl-2,2-dimethyl-1,4-dihydro-2H-3-oxa-7-thia-6,9,11-triazabenzo[c]fluoren-8-ylamino)-propan-1-ol] | ≥ 50 | + (+indicates Activity ≧ 50% at 10 μM)
N#Cc1sc2nc(C3CC3)cc(-c3ccc(F)cc3)c2c1N [Example 9, 3-Amino-6-cyclopropyl-4-(4-fluorophenyl)thieno[2,3-b]pyridine-2-carbonitrile] | ≥ 50 | + (+indicates Activity ≧ 50% at 10 μM)
COc1ccc(S(=O)(=O)N2CC(C)(C)Oc3ccc(NC(=O)c4ccccc4OC)cc32)cc1OC [Example 11, N-(4-(3,4-dimethoxyphenylsulfonyl)-2,2-dimethyl-3,4-dihydro-2H-benzo[b][1,4]oxazin-6-yl)-2-methoxybenzamide] | ≥ 50 | + (+indicates Activity ≧ 50% at 10 μM)
COc1ccc(NC(=O)c2ccccc2C(F)(F)F)cc1OC1CCCC1 [Example 12, N-(3-(cyclopentyloxy)-4-methoxyphenyl)-2-(trifluoromethyl)benzamide] | ≥ 50 | + (+indicates Activity ≧ 50% at 10 μM)
CSc1nc(NC2CCCCC2)c2sccc2n1 [Example 13, N-cyclohexyl-2-(methylthio)thieno[3,2-d]pyrimidin-4-amine] | ≥ 50 | + (+indicates Activity ≧ 50% at 10 μM)
CCOc1ccccc1C(=O)Nc1c2c(nn1-c1cccc(Cl)c1)CS(=O)(=O)C2 [Example 14] | ≥ 50 | − (−indicates Activity < 50% at 10 μM)
CC(C)n1c(=O)c(=O)n(Cc2cccc(C(F)(F)F)c2)c2cc(S(C)(=O)=O)ccc21 [Example 15, 1-Isopropyl-6-(methylsulfonyl)-4-(3-(trifluoromethyl)benzyl)quinoxaline-2,3(1H,4H)-dione] | ≥ 50 | + (+indicates Activity ≧ 50% at 10 μM)
COC(=O)c1ccc(Cn2c(=O)c(=O)n(C(C)C)c3ccc(C(F)(F)F)cc32)cc1 [Example 16, Methyl 4-((4-isopropyl-2,3-dioxo-7-(trifluoromethyl)-3,4-dihydroquinoxalin-1(2H)-yl)methyl)benzoate] | ≥ 50 | + (+indicates Activity ≧ 50% at 10 μM)
CCOC(=O)N1CCN(C(=O)c2cnn3c(C(F)(F)F)cc(-c4ccc(OC)c(OC)c4)nc23)CC1 [Example 17, Ethyl 4-(5-(3,4-dimethoxyphenyl)-7-(trifluoromethyl)pyrazolo[1,5-a]pyrimidine-3-carbonyl)piperazine-1-carboxylate] | ≥ 50 | + (+indicates Activity ≧ 50% at 10 μM)
O=C(c1cccc(N2CCNC2=O)c1)N(CCC1=CCCCC1)Cc1cc2cc3c(cc2nc1N1CCOCC1)OCO3 [Example 19, N-(2-cyclohexenylethyl)-N-((6-morpholino-[1,3]dioxolo[4,5-g]quinolin-7-yl)methyl)-3-(2-oxoimidazolidin-1-yl)benzamide] | ≥ 50 | + (+indicates Activity ≧ 50% at 10 μM)
CCOc1ncccc1C(=O)Nc1ccc(S(=O)(=O)Nc2nccs2)cc1 [Example 20, 2-Ethoxy-N-(4-(N-thiazol-2-ylsulfamoyl)phenyl)nicotinamide] | ≥ 50 | + (+indicates Activity ≧ 50% at 10 μM)
O=c1n(Cc2ccncc2)nc2c3ccccc3nc(C3CC3)n12 [Example 21, 5-Cyclopropyl-2-(pyridin-4-ylmethyl)-[1,2,4]triazolo[4,3-c]quinazolin-3(2H)-one] | ≥ 50 | + (+indicates Activity ≧ 50% at 10 μM)
Cc1c(Cc2ccccc2)c(N2CCNCC2)n2c(nc3ccccc32)c1C#N [Example 25, 2-Benzyl-3-methyl-1-piperazin-1-yl-benzo[4,5]imidazo[2-a]pyridine-4-carbonitrile] | ≥ 50 | − (−indicates Activity < 50% at 10 μM)
CC(C)CCn1c(=O)c2ccccc2n2c(CN3CCN(c4ncccn4)CC3)nnc12 [Example 26, 4-Isopentyl-1-((4-(pyrimidin-2-yl)piperazin-1-yl)methyl)-[1,2,4]triazolo[4,3-a]quinazolin-5(4H)-one] | ≥ 50 | + (+indicates Activity ≧ 50% at 10 μM)

Further lines, with some results ahead:

inhibition at 10 µM (PDE4B) [%] | Compound | Cellular CNG Assay (PDE4)
≥ 50 | COc1ccc(CN(Cc2ccncc2)C(=O)c2ccc3[nH]c(C)c(C)c3c2)cc1OC [Example 3, N-(3,4-dimethoxybenzyl)-2,3-dimethyl-N-(pyridin-4-ylmethyl)-1H-indole-5-carboxamide] | + (+indicates Activity ≧ 50% at 10 μM)
≥ 50 | COc1ccc(CN(C)C(=O)c2cnn(-c3nccc(-c4cccs4)n3)c2C)cc1OC [Example 5, N-(3,4-dimethoxybenzyl)-N,5-dimethyl-1-(4-(thiophen-2-yl)pyrimidin-2-yl)-1H-pyrazole-4-carboxamide] | + (+indicates Activity ≧ 50% at 10 μM)
≥ 50 | CCc1cccc(C)c1Nc1cc(NCCc2ccc(OC)c(OC)c2)ncn1 [Example 6, N4-(3,4-dimethoxyphenethyl)-N6-(2-ethyl-6-methylphenyl)pyrimidine-4,6-diamine] | + (+indicates Activity ≧ 50% at 10 μM)
≥ 50 | COc1ccc(S(=O)(=O)N2CC(C)(C)Oc3ccc(NC(=O)c4cccnc4SC)cc32)cc1OC [Example 10, N-(4-(3,4-dimethoxyphenylsulfonyl)-2,2-dimethyl-3,4-dihydro-2H-benzo[b][1,4]oxazin-6-yl)-2-(methylthio)nicotinamide] | + (+indicates Activity ≧ 50% at 10 μM)
≥ 50 | COc1ccc(-c2cc(C(F)(F)F)n3ncc(C(=O)Nc4cccc(CCC#N)c4)c3n2)cc1OC [Example 18, N-(3-(2-cyanoethyl)phenyl)-5-(3,4-dimethoxyphenyl)-7-(trifluoromethyl)pyrazolo[1,5-a]pyrimidine-3-carboxamide] | + (+indicates Activity ≧ 50% at 10 μM)
≥ 50 | COc1ccc(-c2cnnn2-c2ccc(NC(=O)c3c(F)cccc3F)cc2)cc1OC [Example 22, N-(4-(5-(3,4-dimethoxyphenyl)-1H-1,2,3-triazol-1-yl)phenyl)-2,6-difluorobenzamide] | + (+indicates Activity ≧ 50% at 10 μM)
≥ 50 | COc1ccc(-c2cnnn2-c2ccc(NC(=O)c3ccc4c(c3)OCO4)cc2)cc1OC [Example 23, N-(4-(5-(3,4-dimethoxyphenyl)-1H-1,2,3-triazol-1-yl)phenyl)benzo[d][1,3]dioxole-5-carboxamide] | + (+indicates Activity ≧ 50% at 10 μM)
≥ 50 | COc1ccc(-c2cn3ccnc3c(NCc3ccccc3)n2)cc1OC [Example 24, N-benzyl-6-(3,4-dimethoxyphenyl)imidazo[1,2-a]pyrazin-8-amine] | 
